Measured values reported in ChEMBL document CHEMBL4130353, “2-Substituted 3,7,8-trimethylnaphtho[1,2-b]furan-4,5-diones as specific L-shaped NQO1-mediated redox modulators for the treatment of non-small cell lung cancer” (Eur J Med Chem, 2017).
pIC50: −log10 of the molar value. Values after ≈ are worked out from the molar mass of the structure shown. Active and inactive are the calls of the source. The calls are words filed in the database; no cut-off is given here.

What was measured:
[1] = molecular target: NAD(P)H dehydrogenase [quinone] 1 (Homo sapiens) (UniProt P15559); assay: Substrate activity at NQO1 in human A549 cells assessed as induction of ROS-induced ERK phosphorylation after 3 hrs by Western blot analysis; assay type: cell-based
Sequence of NAD(P)H dehydrogenase [quinone] 1 (Homo sapiens) (P15559 whole entry): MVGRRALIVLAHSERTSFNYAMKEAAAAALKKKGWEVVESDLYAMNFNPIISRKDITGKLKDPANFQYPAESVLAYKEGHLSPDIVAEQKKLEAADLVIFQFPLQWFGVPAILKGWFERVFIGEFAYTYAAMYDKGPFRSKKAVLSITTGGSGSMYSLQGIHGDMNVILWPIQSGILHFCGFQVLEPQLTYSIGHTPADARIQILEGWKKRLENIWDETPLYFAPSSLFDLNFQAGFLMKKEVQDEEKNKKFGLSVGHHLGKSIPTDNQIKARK

[2] = molecular target: NAD(P)H dehydrogenase [quinone] 1 (Homo sapiens) (UniProt P15559); assay: Substrate activity at NQO1 in human A549 cells assessed as induction of enzyme-catalyzed lipid peroxidation by measuring MDA equivalents per protein at 10 uM after 24 hrs by TBARS assay; assay type: cell-based
[3] = molecular target: NAD(P)H dehydrogenase [quinone] 1 (Homo sapiens) (UniProt P15559); assay: Substrate activity at NQO1 in human A549 cells assessed as induction of ROS-induced JNK phosphorylation at 10 uM after 3 hrs in presence of NAC by Western blot analysis relative to control; assay type: cell-based
A549 [4] = assay: Cytotoxicity against human A549 cells assessed as cell growth inhibition preincubated for 24 hrs followed by compound washout measured after 72 hrs in presence of NQO1 inhibitor DIC by MTT assay; assay type: functional, cell-based
A549 [5] = assay: Cytotoxicity against human A549 cells assessed as cell growth inhibition preincubated for 24 hrs followed by compound washout measured after 72 hrs by MTT assay; assay type: functional, cell-based
[6] = molecular target: NAD(P)H dehydrogenase [quinone] 1 (Homo sapiens) (UniProt P15559); assay: Substrate activity at NQO1 in human A549 cells assessed as induction of ROS-induced p38 phosphorylation at T180/Y182 at 10 uM after 3 hrs by Western blot analysis relative to control; assay type: cell-based
A549 [7] = assay: Effect on total AKT protein levels in human A549 cells at 10 uM after 3 hrs by Western blot analysis relative to control; assay type: ADME, cell-based; details: a549, 3 h
A549 [8] = assay: Antitumor activity against human A549 cells xenografted in athymic nude mouse assessed as tumor growth inhibition at 15 mg/kg, iv administered every other day for 3 weeks measured every day during compound dosing relative to control; assay type: functional; details: 504 h, read-out: TGI
[9] = molecular target: NAD(P)H dehydrogenase [quinone] 1 (Homo sapiens) (UniProt P15559); assay: Substrate activity at NQO1 in human A549 cells assessed as induction of ROS-induced ERK phosphorylation at 1 uM after 3 hrs by Western blot analysis relative to control; assay type: cell-based
[10] = molecular target: NAD(P)H dehydrogenase [quinone] 1 (Homo sapiens) (UniProt P15559); assay: Substrate activity at NQO1 in human A549 cells assessed as induction of ROS-induced ERK phosphorylation at 5 uM after 3 hrs by Western blot analysis relative to control; assay type: cell-based
[11] = molecular target: NAD(P)H dehydrogenase [quinone] 1 (Homo sapiens) (UniProt P15559); assay: Substrate activity at NQO1 in human A549 cells assessed as induction of ROS-induced JNK phosphorylation after 3 hrs by Western blot analysis; assay type: cell-based
A549 [12] = assay: Induction of apoptosis in human A549 cells assessed as increase in cleaved PARP expression at 10 uM after 24 hrs in presence of DIC by Western blot analysis; assay type: functional, cell-based
A549 [13] = assay: Induction of apoptosis in human A549 cells assessed as increase in cleaved PARP expression at 10 uM after 24 hrs in presence of NAC by Western blot analysis; assay type: functional, cell-based
[14] = molecular target: NAD(P)H dehydrogenase [quinone] 1 (Homo sapiens) (UniProt P15559); assay: Substrate activity at NQO1 in human A549 cells assessed as induction of ROS-induced p38 phosphorylation at T180/Y182 at 5 uM after 3 hrs by Western blot analysis relative to control; assay type: cell-based
[15] = molecular target: NAD(P)H dehydrogenase [quinone] 1 (Homo sapiens) (UniProt P15559); assay: Substrate activity at NQO1 in human A549 cells assessed as induction of ROS-induced Akt phosphorylation at […] at 1 uM after 3 hrs by Western blot analysis relative to control; assay type: cell-based
[16] = Solubility of the compound in diluted HCl buffer at pH 3; assay type: physicochemical
Mus musculus = assay: Toxicity in athymic nude mouse xenografted with human A549 cells assessed as effect on body weight at 50 mg/kg, iv administered every other day for 3 weeks; assay type: organism-based; details: in vivo, 504 h
A549 [17] = assay: Effect on total p38 protein levels in human A549 cells at 10 uM after 3 hrs in presence of DIC by Western blot analysis relative to control; assay type: ADME, cell-based; details: a549, 3 h
[18] = molecular target: NAD(P)H dehydrogenase [quinone] 1 (Homo sapiens) (UniProt P15559); assay: Substrate activity at NQO1 in human A549 cells assessed as induction of ROS-induced Akt phosphorylation at […] after 3 hrs by Western blot analysis; assay type: cell-based
[19] = molecular target: NAD(P)H dehydrogenase [quinone] 1 (Homo sapiens) (UniProt P15559); assay: Substrate activity at NQO1 in human A549 cells assessed as induction of ROS-induced ERK phosphorylation at 10 uM after 3 hrs by Western blot analysis relative to control; assay type: cell-based
[20] = molecular target: NAD(P)H dehydrogenase [quinone] 1 (Homo sapiens) (UniProt P15559); assay: Substrate activity at NQO1 in human A549 cells assessed as induction of ROS-induced Akt phosphorylation at S473 at 10 uM after 3 hrs in presence of DIC by Western blot analysis relative to control; assay type: cell-based
Danio rerio = species on record: Danio rerio; assay: Hepatotoxicity in 48 hrs post fertilized transgenic liver zebrafish larvae model expressing LFABP:EGFP protein at 10 uM measured after 48 hrs post dose by fluorescence based assay; assay type: organism-based; details: in vivo
[21] = molecular target: NAD(P)H dehydrogenase [quinone] 1 (Homo sapiens) (UniProt P15559); assay: Substrate activity at NQO1 in human A549 cells assessed as induction of ROS-induced JNK phosphorylation at 1 uM after 3 hrs by Western blot analysis relative to control; assay type: cell-based
[22] = molecular target: NAD(P)H dehydrogenase [quinone] 1 (Homo sapiens) (UniProt P15559); assay: Substrate activity at NQO1 in human A549 cells assessed as induction of ROS-induced Akt phosphorylation at […] at 10 uM after 3 hrs by Western blot analysis relative to control; assay type: cell-based
[23] = Intrinsic solubility of the compound; assay type: physicochemical; details: read-out: Intrinsic_solubility
A549 [24] = assay: Induction of apoptosis in human A549 cells assessed as increase in cleaved PARP expression after 24 hrs by Western blot analysis; assay type: functional, cell-based
NCI-H1299 = assay: Cytotoxicity against human NCI-H1299 cells assessed as assessed as cell growth inhibition for 24 hrs followed by compound washout measured after 72 hrs by MTT assay; assay type: functional, cell-based
A549 [25] = assay: Effect on total ERK protein levels in human A549 cells at 10 uM after 3 hrs in presence of NAC by Western blot analysis relative to control; assay type: ADME, cell-based; details: a549, 3 h
[26] = molecular target: NAD(P)H dehydrogenase [quinone] 1 (Homo sapiens) (UniProt P15559); assay: Substrate activity at NQO1 in human A549 cells assessed as induction of ROS-induced p38 phosphorylation at T180/Y182 at 10 uM after 3 hrs in presence of NAC by Western blot analysis relative to control; assay type: cell-based
[27] = molecular target: NAD(P)H dehydrogenase [quinone] 1 (Homo sapiens) (UniProt P15559); assay: Substrate activity at NQO1 in human A549 cells assessed as induction of ROS-induced Akt phosphorylation at S473 at 10 uM after 3 hrs in presence of NAC by Western blot analysis relative to control; assay type: cell-based
[28] = molecular target: NAD(P)H dehydrogenase [quinone] 1 (Homo sapiens) (UniProt P15559); assay: Substrate activity at recombinant human NQO1 expressed in Escherichia coli assessed as reduction rate by measuring umol of NADPH utilized per umol of enzyme at 10 uM preincubated for 3 mins followed by NADPH addition measured at 2 secs interval for 5 mins by UV-Vis spectroscopy
[29] = molecular target: NAD(P)H dehydrogenase [quinone] 1 (Homo sapiens) (UniProt P15559); assay: Substrate activity at NQO1 in human A549 cells assessed as induction of enzyme-catalyzed ROS production at 10 uM after 1 to 3 hrs in presence of DIC by DCFH-DA-based flow cytometry; assay type: cell-based
[30] = molecular target: NAD(P)H dehydrogenase [quinone] 1 (Homo sapiens) (UniProt P15559); assay: Substrate activity at NQO1 in human A549 cells assessed as induction of ROS-induced p38 phosphorylation at T180/Y182 at 10 uM after 3 hrs in presence of DIC by Western blot analysis relative to control; assay type: cell-based
A549 [31] = assay: Effect on total ERK protein levels in human A549 cells at 5 uM after 3 hrs by Western blot analysis relative to control; assay type: ADME, cell-based; details: a549, 3 h
[32] = molecular target: NAD(P)H dehydrogenase [quinone] 1 (Homo sapiens) (UniProt P15559); assay: Substrate activity at NQO1 in human A549 cells assessed as induction of ROS-induced Akt phosphorylation at S473 at 10 uM after 3 hrs by Western blot analysis relative to control; assay type: cell-based

Activity [1]: Dose-dependent effect
Activity [2]: 18.6 nmol/mg
fold change (FC) [3]: 12.5
fold change (FC) [6]: 16.4
fold change (FC) (A549 [7]): 1.3
fold change (FC) [9]: 2
fold change (FC) [10]: 2.41
Activity [11]: Dose-dependent effect
fold change (FC) [14]: 12.1
fold change (FC) [15]: 2.38
solubility [16]: > 1000 µg/mL
fold change (FC) (A549 [17]): 1.03
Activity [18]: Dose-dependent effect
fold change (FC) [19]: 2.49
fold change (FC) [20]: 1.36
fold change (FC) [21]: 17.4
fold change (FC) [22]: 4.18
solubility [23]: 360 µg/mL (≈ 810 µM)
fold change (FC) (A549 [25]): 1.11
fold change (FC) [26]: 11.2
fold change (FC) [27]: 0.32
Activity [28]: 1520 µmol/min
Activity [29]: inactive
fold change (FC) [30]: 9.2
fold change (FC) (A549 [31]): 0.97
fold change (FC) [32]: 2.05
SMILES: Cc1cc2c(cc1C)-c1oc(CNc3ccc(CN4CCOCC4)cc3)c(C)c1C(=O)C2=O
pIC50 (A549 [4]): < 4.30
pIC50 (A549 [5]): 5.68
inhibition in vivo at 15 mg/kg (A549 [8]): 65.8%
Activity (A549 [12]): inactive
Activity (A549 [13]): inactive
Activity (Mus musculus): Non-Toxic
Activity (Danio rerio): Non-Toxic
Activity (A549 [24]): Dose-dependent effect
pIC50 (NCI-H1299): 5.42
